Test results published in US7196192B2, “28-epirapalogs” (Ariad Gene Therapeutics, Inc., priority 1999, dated 2007).
pEC50, pIC50: −log10 of the molar value. “And” between values parts separate entries of the source, which are not always exact repeats. Equal entries are not always repeated. Where two headings read alike, the source gives them in different places.

How the values were obtained:
[1] = biological target: T1, transcriptional switch components containing FKBP and 2098L mutant FRB domains (Homo sapiens, UniProt P42345+P62942); assay: transcription assay in engineered HD1080 cells expressing SEAP (txn 2098L); format: cell-based; settings: for TXN 2098L peak relative to rapamycin peak: superscript mark on EC50 cell
T1 construct: transcriptional switchcomponents containing FKBP and 2098L mutant FRB domains, respectively; fused on or other part: The two switch components are separate chimeric proteins; Neither is given for this cell line
Text: The ability of the rapalogs to multimerize chimeric proteins may be measured in cell-based assays by measuring the occurrence of an event triggered by such multimerization. For instance, one may use cells containing and capable of expressing DNA encoding a first chimeric protein comprising one or more FKBP-domains and one or more effector domains as well as DNA encoding a second chimeric protein containing an FRB domain and one or more effector domains capable, upon multimerization, of actuating a biological response. We prefer to use cells which further contain a reporter gene under the transcriptional control of a regulatory element (i.e., promoter) which is responsive to the multimerization of the chimeric proteins. The design and preparation of illustrative components and their use in so engineered cells is described in WO99/36553 and WO96/41865 and the other international patent applications referred to in this and the foregoing section. (See also W099/10510 for additional guidance on the design, assembly and delivery of nucleic acids to render cells and animals responsive to rapalogs of interest and for additional guidance on applications of such systems.) The cells are grown or maintained in culture. A rapalog is added to the culture medium and after a suitable incubation period (to permit gene expression and secretion, e.g. several hours or overnight) the presence of the reporter gene product is measured. Positive results, i.e., multimerization, correlates with transcription of the reporter gene as observed by the appearance of the reporter gene product. The reporter gene product may be a conveniently detectable protein (e.g. by ELISA) or may catalyze the production of a conveniently detectable product (e.g. colored). Materials and methods for producing appropriate cell lines for conducting such assays are disclosed in the international patent applications cited above in this section.
2. EC50 values of the various compounds was measured in a transcription assay using genetically engineered HD1080 cells which constitutively express transcriptional switch components containing FKBP and 2098L mutant FRB domains, respectively and which regulatably express secreted alkaline phosphatase (SEAP) in the presence of a compound which multimerizes the switch components. The assay is a literature assay. See WO 99/36553, e.g. Example 12, pages 120–121 (& FIG. 2D) […]

murine splenocyte = murine splenocyte assay for immunosuppressive activity; format: cell-based; settings: for pIC50: read-out: Splenocyte IC50; for immunosuppressive activity compared with rapamycin: splenocyte proliferation assay, versus rapamycin
Procedure: 3. Conventional murine splenocyte assay for immunosuppressive activity.
(§1) A diverse group of C7-modified 28-epirapalogs were prepared as described in Example 4.

FKBP = FKBP (Homo sapiens, UniProt P62942); assay: FKBP competitive binding assay based on fluorescence polarization (FP); settings: for pIC50 / IC50: competitive FP binding; for IC50: FKBP IC50 (nM)
Procedure: A Competitive Binding FP Assay is described in detail in WO99/36553 and WO96/41865. That assay permits the in vitro measurement of an IC50 value for a given compound which reflects its ability to bind to an FKBP-protein in competition with a labeled FKBP ligand, such as, for example, FK506.
as §1

[2] = cellular transcription assay, methods of Example 2.5, read-out: TXN 2098L EC50
[3] = mouse splenocyte assay, methods of Example 2.5
[4] = methods of Example 2.5, read-out: FKBP IC50
[5] = Mus musculus, Splenocyte, mouse splenocyte assay, methods of Example 2.5
[6] = HD1080 cells, FKBP and 2098L mutant FRB switch, SEAP reporter, read-out: txn 2098L EC50
[7] = Mus musculus, Splenocyte, murine splenocyte assay, immunosuppressive activity
[8] = fluorescein-labelled FK506 probe (AP1491), read-out: FKBP binding IC50
[9] = read-out: TXN 2098L EC50, cellular transcription assay, methods of Example 2.5

FKBP, sequence (P62942 whole entry): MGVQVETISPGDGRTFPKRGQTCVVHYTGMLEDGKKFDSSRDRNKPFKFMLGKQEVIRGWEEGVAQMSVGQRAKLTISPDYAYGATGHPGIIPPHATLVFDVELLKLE
T1 sequence (P62942 2-108 limits assumed, stated change not applied, other chains not shown): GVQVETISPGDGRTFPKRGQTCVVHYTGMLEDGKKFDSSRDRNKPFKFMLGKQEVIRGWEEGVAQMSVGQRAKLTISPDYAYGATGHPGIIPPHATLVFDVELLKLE

| SMILES | pEC50 [1, 2] | pIC50 (murine splenocyte; [3]) | pIC50 (FKBP; [4]) | other results |
| --- | --- | --- | --- | --- |
| COC1CC(CC(C)C2CC(=O)C(C)C=C(C)C(O)C(OC)C(=O)C(C)CC(C)C=CC=CC=C(C)C(c3ccc(C)s3)CC3CCC(C)C(O)(O3)C(=O)C(=O)N3CCCCC3C(=O)O2)CCC1O (stereo not drawn) [28-epi-7R-methylthiophene] | 7.66 | 6.37 to 6.40 | 6.92 |  |
| CO[C@@H]1C[C@H](C[C@@H](C)[C@@H]2CC(=O)[C@H](C)/C=C(\C)[C@H](O)[C@@H](OC)C(=O)[C@H](C)C[C@H](C)/C=C/C=C/C=C(\C)[C@H](NS(C)(=O)=O)C[C@@H]3CC[C@@H](C)[C@@](O)(O3)C(=O)C(=O)N3CCCC[C@H]3C(=O)O2)CC[C@H]1O [28-epi-7R-methanesulfonamide] | 7.62 |  | 8.14 | pIC50 (murine splenocyte; [5]): 7.04 |
| COC1CC(CC(C)C2CC(=O)C(C)C=C(C)C(O)C(OC)C(=O)C(C)CC(C)C=CC=CC=C(C)C(OCc3ccccc3)CC3CCC(C)C(O)(O3)C(=O)C(=O)N3CCCCC3C(=O)O2)CCC1O (single isomer, unassigned) [28-epi-7R-benzyloxy] | 7.85 | 6.50 | 8.04 |  |
| CO[C@H]1C[C@@H]2CC[C@@H](C)[C@@](O)(O2)C(=O)C(=O)N2CCCC[C@H]2C(=O)O[C@H]([C@H](C)C[C@@H]2CC[C@@H](OCc3ccccc3)[C@H](OC)C2)CC(=O)[C@H](C)/C=C(\C)[C@H](O)[C@@H](OC)C(=O)[C@H](C)C[C@H](C)/C=C/C=C/C=C/1C [43-O-benzyl-28-epirapamycin] |  |  |  | pEC50 [1, 6]: 7.92; pIC50 (murine splenocyte; [7]): ~5.92; pIC50 (FKBP; [8]): 7.20 |
| CO[C@H]1C[C@@H]2CC[C@@H](C)[C@@](O)(O2)C(=O)C(=O)N2CCCCC2C(=O)O[C@H]([C@H](C)C[C@@H]2CC[C@@H](O)[C@H](OC)C2)CC(=O)[C@H](C)/C=C(\C)[C@H](O)[C@@H](OC)C(=O)[C@H](C)C[C@H](C)/C=C/C=C/C=C/1C (some centres unmarked) [28-epirapamycin] |  |  |  | pIC50 (murine splenocyte; [5]): 8.46 to 9.05; pIC50 (murine splenocyte; [7]): 8.46 to 9.05; immunosuppressive activity compared with rapamycin (murine splenocyte): less potent immunosuppressive activity; immunosuppressive activity compared with rapamycin (murine splenocyte; listed as 2): more than an order of magnitude reduced; affinity towards FKBP, times weaker than that of rapamycin (FKBP; fluorescence polarization competition assay, versus rapamycin): about 5 times |
| CO[C@@H]1C[C@H](C[C@@H](C)[C@@H]2CC(=O)[C@H](C)/C=C(\C)[C@H](O)[C@@H](OC)C(=O)[C@H](C)C[C@H](C)/C=C/C=C/C=C(\C)[C@H](NS(=O)(=O)N(C)c3ccccc3)C[C@@H]3CC[C@@H](C)[C@@](O)(O3)C(=O)C(=O)N3CCCC[C@H]3C(=O)O2)CC[C@H]1O [28-epi-7R-methylphenylsulfamide] | 7.57 | 7.66 | 7.42 |  |
| COC1CC(CC(C)C2CC(=O)C(C)C=C(C)C(O)C(OC)C(=O)C(C)CC(C)C=CC=CC=C(C)C(SC(C)C)CC3CCC(C)C(O)(O3)C(=O)C(=O)N3CCCCC3C(=O)O2)CCC1O (stereo not drawn) [28-epi-7S-isopropylthioether] |  |  | 7.82 and 7.68 | TXN 2098L peak relative to rapamycin peak [1]: (+) (peak was >125% rapamycin peak) |
| CCOC1CC2CCC(C)C(O)(O2)C(=O)C(=O)N2CCCCC2C(=O)OC(C(C)CC2CCC(O)C(OC)C2)CC(=O)C(C)C=C(C)C(O)C(OC)C(=O)C(C)CC(C)C=CC=CC=C1C (stereo not drawn) [28-epi-7S-ethoxy] | 7.82 |  |  | IC50 (murine splenocyte; Mus musculus, Splenocyte, read-out: Splenocyte IC50 (nM)): 801 nM |
| COC1CC(CC(C)C2CC(=O)C(C)C=C(C)C(O)C(OC)C(=O)C(C)CC(C)C=CC=CC=C(C)C(NC(=O)Oc3ccccc3)CC3CCC(C)C(O)(O3)C(=O)C(=O)N3CCCCC3C(=O)O2)CCC1O (stereo not drawn) [28-epi-7R-phenylcarbamate] | 8.00 | < 5.30 | 8.05 | TXN 2098L peak relative to rapamycin peak [1]: (+) (peak was >125% rapamycin peak) |
| COC1CC(CC(C)C2CC(=O)C(C)C=C(C)C(O)C(OC)C(=O)C(C)CC(C)C=CC=CC=C(C)C(OCCC3CCCCC3)CC3CCC(C)C(O)(O3)C(=O)C(=O)N3CCCCC3C(=O)O2)CCC1O (stereo not drawn) [28-epi-7S-cyclohexylethyloxy] | 7.12 |  |  |  |
| CO[C@H]1C[C@@H]2CC[C@@H](C)[C@@](O)(O2)C(=O)C(=O)N2CCCC[C@H]2C(=O)O[C@H]([C@H](C)C[C@@H]2CC[C@@H](OC)[C@H](OC)C2)CC(=O)[C@H](C)/C=C(\C)[C@H](O)[C@@H](OC)C(=O)[C@H](C)C[C@H](C)/C=C/C=C/C=C/1C [43-O-methyl-28-epirapamycin] |  |  |  | pEC50 [1, 6]: 8.52; pIC50 (murine splenocyte; [7]): 7.51 to 7.70; pIC50 (FKBP; [8]): 7.47 |
| CO[C@@H]1C[C@H](C[C@@H](C)[C@@H]2CC(=O)[C@H](C)/C=C(\C)[C@H](O)[C@@H](OC)C(=O)[C@H](C)C[C@H](C)/C=C/C=C/C=C(\C)[C@@H](N(C)S(=O)(=O)N(C)c3ccccc3)C[C@@H]3CC[C@@H](C)[C@@](O)(O3)C(=O)C(=O)N3CCCC[C@H]3C(=O)O2)CC[C@H]1O [28-epi-7S-N-Me-methylphenylsulfamide] | 7.59 |  |  |  |
| COC1CC(CC(C)C2CC(=O)C(C)C=C(C)C(O)C(OC)C(=O)C(C)CC(C)C=CC=CC=C(C)C(N(C)C(=O)OCC(C)C)CC3CCC(C)C(O)(O3)C(=O)C(=O)N3CCCCC3C(=O)O2)CCC1O (single isomer, unassigned) [28-epi-7R-N-Me-isobutylcarbamate] | 7.82 | 6.23 | 6.96 |  |
| CCOC1CC2CCC(C)C(O)(O2)C(=O)C(=O)N2CCCCC2C(=O)OC(C(C)CC2CCC(O)C(OC)C2)CC(=O)C(C)C=C(C)C(O)C(OC)C(=O)C(C)CC(C)C=CC=CC=C1C (stereo not drawn) [28-epi-7R-ethoxy] | 7.48 |  |  |  |
| CO[C@@H]1C[C@H](C[C@@H](C)[C@@H]2CC(=O)[C@H](C)/C=C(\C)[C@H](O)[C@@H](OC)C(=O)[C@H](C)C[C@H](C)/C=C/C=C/C=C(\C)[C@H](Oc3ccccc3C)C[C@@H]3CC[C@@H](C)[C@@](O)(O3)C(=O)C(=O)N3CCCC[C@H]3C(=O)O2)CC[C@H]1O [28-epi-7R-2′-methylphenyloxy] |  |  |  | pEC50 [1, 9]: 8.10; TXN 2098L peak relative to rapamycin peak [1]: (+) (peak was >125% rapamycin peak); IC50 (FKBP; methods of Example 2.5): 8.1 nM |
| CO[C@@H]1C[C@H](C[C@@H](C)[C@@H]2CC(=O)[C@H](C)/C=C(\C)[C@H](O)[C@@H](OC)C(=O)[C@H](C)C[C@H](C)/C=C/C=C/C=C(\C)[C@@H](Oc3ccccc3C)C[C@@H]3CC[C@@H](C)[C@@](O)(O3)C(=O)C(=O)N3CCCC[C@H]3C(=O)O2)CC[C@H]1O [28-epi-7S-2′-methylphenyloxy] |  |  |  | pEC50 [1, 9]: 7.85; IC50 (FKBP; methods of Example 2.5): 17 nM |
| CO[C@@H]1C[C@H](C[C@@H](C)[C@@H]2CC(=O)[C@H](C)/C=C(\C)[C@H](O)[C@@H](OC)C(=O)[C@H](C)C[C@H](C)/C=C/C=C/C=C(\C)[C@@H](OC(C)C)C[C@@H]3CC[C@@H](C)[C@@](O)(O3)C(=O)C(=O)N3CCCC[C@H]3C(=O)O2)CC[C@H]1O [28-epi-7S-isopropyloxy] | 7.54 |  | 7.31 |  |
| CO[C@@H]1C[C@H](C[C@@H](C)[C@@H]2CC(=O)[C@H](C)/C=C(\C)[C@H](O)[C@@H](OC)C(=O)[C@H](C)C[C@H](C)/C=C/C=C/C=C(\C)[C@H](N(C)S(=O)(=O)N(C)C)C[C@@H]3CC[C@@H](C)[C@@](O)(O3)C(=O)C(=O)N3CCCC[C@H]3C(=O)O2)CC[C@H]1O [28-epi-7R-N-Me-dimethylsulfamide] | 8.10 | 6.19 |  |  |
| CO[C@H]1C[C@@H]2CC[C@@H](C)[C@@](O)(O2)C(=O)C(=O)N2CCCCC2C(=O)O[C@H]([C@H](C)C[C@@H]2CC[C@@H](O)[C@H](OC)C2)CC(=O)[C@H](C)/C=C(\C)[C@@H](O)[C@@H](OC)C(=O)[C@H](C)C[C@H](C)/C=C/C=C/C=C/1C (some centres unmarked) [rapamycin, reference compound] |  |  |  | pIC50 (murine splenocyte; [5]): 9.52 to 10.00; pIC50 (murine splenocyte; [7]): 9.52 to 10.00 |
| CO[C@@H]1C[C@H](C[C@@H](C)[C@@H]2CC(=O)[C@H](C)/C=C(\C)[C@H](O)[C@@H](OC)C(=O)[C@H](C)C[C@H](C)/C=C/C=C/C=C(\C)[C@H](N(C)S(=O)(=O)N(C)c3ccccc3)C[C@@H]3CC[C@@H](C)[C@@](O)(O3)C(=O)C(=O)N3CCCC[C@H]3C(=O)O2)CC[C@H]1O [28-epi-7R-N-Me-methylphenylsulfamide] | 8.10 |  | 7.13 |  |
